Assay results: ChEMBL document CHEMBL4831491, “Non-carboxylic acid inhibitors of aldose reductase based on N-substituted thiazolidinedione derivatives” (Eur J Med Chem, 2021)
In brackets after ≈: the same amount, converted by molar mass.

How the values were obtained:
[1] = Inhibition of ALR2 in Wistar rat lens assessed as reduction in NADPH consumption using D,L-glyceraldehyde and NADPH as substrate preincubated for 1 mins followed by substrate addition and measured upto 4 mins by spectrophotometric analysis; format: tissue-based
Rattus norvegicus [2] = organism: Rattus norvegicus; experiment: Inhibition of ALR2 in Wistar rat lens assessed as reduction in NADPH consumption at 10 uM using D,L-glyceraldehyde and NADPH as substrate preincubated for 1 mins followed by substrate addition and measured upto 4 mins by spectrophotometric analysis; format: tissue-based; conditions: time 5.0 min
physchem [3] = conditions: PBS buffer, pH 7.4
Rattus norvegicus [4] = organism: Rattus norvegicus; experiment: Inhibition of ALR2 in Wistar rat lens assessed as reduction in NADPH consumption at 30 uM using D,L-glyceraldehyde and NADPH as substrate preincubated for 1 mins followed by substrate addition and measured upto 4 mins by spectrophotometric analysis; format: tissue-based; conditions: time 5.0 min
[5] = Solubility of the compound at >30 uM; format: physicochemical
[6] = Inhibition of ALR1 in Wistar rat kidney assessed as reduction in NADPH consumption using sodium D-glucuronate and NADPH as substrate preincubated for 1 mins followed by substrate addition and measured upto 4 mins by spectrophotometric analysis; format: tissue-based
Rattus norvegicus [7] = organism: Rattus norvegicus; experiment: Selectivity index, ratio of IC50 for ALR1 in Wistar rat kidney to IC50 for ALR2 in Wistar rat lens
in vitro [8] = conditions: human, Caco-2
Description: Apparent permeability of the compound across basolateral side to apical side in human Caco-2 cells incubated for 150 mins by LC-MS/MS analysis

in vitro [9] = conditions: human, Caco-2; remark: listed apart in the source
Description: Efflux ratio of apparent permeability in human Caco-2 cells

in vitro [10] = conditions: human, Caco-2; remark: listed apart in the source
Description: Apparent permeability of the compound across apical side to basolateral side in human Caco-2 cells incubated for 150 mins by LC-MS/MS analysis

physchem [11] = conditions: n-octanol/PBS buffer, pH 7.4
in vitro [12] = conditions: dog, MDCK
Description: Apparent permeability of the compound across basolateral side to apical side in dog MDCK-II cells incubated for 150 mins by LC-MS/MS analysis

in vitro [13] = conditions: dog, MDCK; remark: listed apart in the source
Description: Apparent permeability of the compound across apical side to basolateral side in dog MDCK-II cells incubated for 150 mins by LC-MS/MS analysis

in vitro [14] = conditions: dog, MDCK; remark: listed apart in the source
Description: Efflux ratio of apparent permeability in dog MDCK-II cells

Rattus norvegicus [15] = organism: Rattus norvegicus; experiment: Inhibition of ALR2 in Wistar rat lens assessed as reduction in NADPH consumption at 50 uM using D,L-glyceraldehyde and NADPH as substrate preincubated for 1 mins followed by substrate addition and measured upto 4 mins by spectrophotometric analysis; format: tissue-based; conditions: time 5.0 min

CC(/C=C1\SC(=S)N(CC(=O)O)C1=O)=C\c1ccccc1
IC50 ([1]; read-out: IC50): 0.227 µM

CCOc1ccc(NC(=O)CN2C(=O)S/C(=C\c3ccc(OC)c(O)c3)C2=O)cc1
IC50 [1]: Nd(Insoluble) | inhibition (Rattus norvegicus [2]): 25.3%

O=C(CCCN1CCC(O)(c2ccc(Cl)cc2)CC1)c1ccc(F)cc1 [HALOPERIDOL]
solubility at 2 h, 200 µM (physchem [3]): 73.3 µM (≈ 27.6 µg/mL)

CCN(CC)C(=O)CN1C(=O)S/C(=C\c2cccs2)C1=O
inhibition (Rattus norvegicus [4]): 6.22% | solubility [5]: Insoluble

CCc1ccc(/C=C2\SC(=O)N(CC(=O)N(CC)CC)C2=O)cc1
inhibition (Rattus norvegicus [4]): 5.05% | solubility [5]: Insoluble

O=C(CN1C(=O)S/C(=C\c2ccc(O)cc2)C1=O)Nc1ccccc1
IC50 ([1]; read-out: IC50): 2.93 µM | IC50 [6]: 3.91 µM | Ratio IC50 (Rattus norvegicus [7]): 1.3

CCN(CC)C(=O)CN1C(=O)S/C(=C\c2ccc(OC)cc2)C1=O
inhibition (Rattus norvegicus [4]): 19.5% | solubility [5]: Insoluble

COc1ccc(NC(=O)CN2C(=O)S/C(=C\c3ccccc3)C2=O)cc1
inhibition (Rattus norvegicus [2]): 29.2% | solubility [5]: Insoluble

CCCCNC(=O)CN1C(=O)S/C(=C\c2ccc(Cl)cc2)C1=O
inhibition (Rattus norvegicus [2]): 6.53% | solubility [5]: Insoluble

O=C(CN1C(=O)S/C(=C\c2ccccc2)C1=O)NCCc1ccccc1
inhibition (Rattus norvegicus [2]): 13.2% | solubility [5]: Insoluble

CCc1ccccc1NC(=O)CN1C(=O)S/C(=C\c2ccc(O)cc2)C1=O
IC50 ([1]; read-out: IC50): 1.9 µM | IC50 [6]: 2.85 µM | Ratio IC50 (Rattus norvegicus [7]): 1.5

COc1ccc(/C=C2\SC(=O)N(CC(=O)NCc3ccccc3)C2=O)cc1O
IC50 ([1]; read-out: IC50): 10.9 µM

CCCCNC(=O)CN1C(=O)S/C(=C\c2ccc(O)cc2)C1=O
IC50 ([1]; read-out: IC50): 5.68 µM | IC50 [6]: 48.5 µM | Ratio IC50 (Rattus norvegicus [7]): 8.5 | solubility [5]: Insoluble

O=c1[nH]c2ccccc2n1CCCN1CCC(n2c(=O)[nH]c3cc(Cl)ccc32)CC1 [DOMPERIDONE]
Papp B→A at 2.5 h (in vitro [8]): 30.8 ×10⁻⁶ cm/s | efflux ratio (in vitro [9]): 12.2 | Papp A→B at 2.5 h (in vitro [10]): 2.5 ×10⁻⁶ cm/s

O=C(CN1C(=O)S/C(=C\c2ccc(O)cc2)C1=O)Nc1ccc(F)cc1
IC50 ([1]; read-out: IC50): 1.47 µM | IC50 [6]: 8.06 µM | Ratio IC50 (Rattus norvegicus [7]): 5.4

COCCc1ccc(OCC(O)CNC(C)C)cc1 (centres undefined) [METOPROLOL]
logD (physchem [11]): 0.05

C[C@H]1O[C@@H](O[C@H]2[C@@H](O)C[C@H](O[C@H]3[C@@H](O)C[C@H](O[C@H]4CC[C@@]5(C)[C@H](CC[C@@H]6[C@@H]5C[C@@H](O)[C@]5(C)[C@@H](C7=CC(=O)OC7)CC[C@]65O)C4)O[C@@H]3C)O[C@@H]2C)C[C@H](O)[C@@H]1O [DIGOXIN]
Papp B→A at 2.5 h (in vitro [12]): 5.66 ×10⁻⁶ cm/s | Papp A→B at 2.5 h (in vitro [13]): 0.19 ×10⁻⁶ cm/s | efflux ratio (in vitro [14]): 30.3

CCN(CC)C(=O)CN1C(=O)S/C(=C\c2cccc(OC)c2)C1=O
inhibition (Rattus norvegicus [4]): 15% | solubility [5]: Insoluble

CCN(CC)C(=O)CN1C(=O)S/C(=C\c2ccc(OC)c(O)c2)C1=O
inhibition (Rattus norvegicus [15]): 31.6%

COc1ccc(NC(=O)CN2C(=O)S/C(=C\c3ccc(O)cc3)C2=O)cc1
IC50 ([1]; read-out: IC50): 1.65 µM | IC50 [6]: 5.3 µM | Ratio IC50 (Rattus norvegicus [7]): 3.2

CN(C)CCC=C1c2ccccc2CCc2ccccc21 [AMITRIPTYLINE]
logD (physchem [11]): 2.85

CCN(CC)C(=O)CN1C(=O)S/C(=C\c2cccc(O)c2)C1=O
inhibition (Rattus norvegicus [4]): 0% | solubility [5]: Insoluble

O=C(CN1C(=O)S/C(=C\c2ccccc2)C1=O)NC1CC1
inhibition (Rattus norvegicus [2]): 2.85% | solubility [5]: Insoluble

CCN(CC)C(=O)CN1C(=O)S/C(=C\c2ccc(O)c(OC)c2)C1=O
IC50 ([1]; read-out: IC50): 56 µM | inhibition (Rattus norvegicus [15]): 48%

CCN(CC)C(=O)CN1C(=O)S/C(=C\c2ccc(C)cc2)C1=O
inhibition (Rattus norvegicus [4]): 20.2% | solubility [5]: Insoluble

CCN(CC)C(=O)CN1C(=O)S/C(=C\c2ccc(O)cc2)C1=O
IC50 ([1]; read-out: IC50): 1.33 µM | inhibition (Rattus norvegicus [2]): 77.7% | IC50 [6]: 12.5 µM | Ratio IC50 (Rattus norvegicus [7]): 9.4 | solubility [5]: Insoluble

NC(=O)N1c2ccccc2C=Cc2ccccc21 [CARBAMAZEPINE]
Papp B→A at 2.5 h (in vitro [8]): 24.8 ×10⁻⁶ cm/s | efflux ratio (in vitro [9]): 0.9 | Papp A→B at 2.5 h (in vitro [10]): 26.2 ×10⁻⁶ cm/s

CCN(CC)C(=O)CN1C(=O)S/C(=C\c2ccccc2)C1=O
IC50 ([1]; read-out: IC50): 23.5 µM | inhibition (Rattus norvegicus [2]): 16.8% | solubility [5]: Insoluble

O=C(CN1C(=O)S/C(=C\c2cccc(O)c2)C1=O)NCc1ccccc1
IC50 ([1]; read-out: IC50): 3.25 µM | IC50 [6]: 28 µM | Ratio IC50 (Rattus norvegicus [7]): 8.6

CCCCNC(=O)CN1C(=O)S/C(=C\c2ccc(OC)cc2)C1=O
IC50 ([1]; read-out: IC50): 20.3 µM | IC50 [6]: 17 µM | Ratio IC50 (Rattus norvegicus [7]): 0.8 | solubility [5]: Insoluble

C#CCOc1ccc(/C=C2\SC(=O)N(CC(=O)NCc3ccccc3)C2=O)cc1
IC50 [1]: Nd(Insoluble) | inhibition (Rattus norvegicus [2]): 30.1%

C#CCOc1ccc(/C=C2\SC(=O)N(CC(=O)Nc3ccccc3)C2=O)cc1
IC50 [1]: Nd(Insoluble) | inhibition (Rattus norvegicus [2]): 8.83%

C=C[C@H]1C[N@@]2CC[C@H]1C[C@@H]2[C@@H](O)c1ccnc2ccc(OC)cc12 [QUINIDINE]
Papp B→A at 2.5 h (in vitro [12]): 21.4 ×10⁻⁶ cm/s | Papp A→B at 2.5 h (in vitro [13]): 3.27 ×10⁻⁶ cm/s | efflux ratio (in vitro [14]): 6.6

Cc1ncc2n1-c1ccc(Cl)cc1C(c1ccccc1F)=NC2 [MIDAZOLAM]
logD (physchem [11]): 3.28

CCN(CC)C(=O)CN1C(=O)S/C(=C\c2cccc(Cl)c2)C1=O
inhibition (Rattus norvegicus [4]): 0% | solubility [5]: Insoluble

CCN(CC)C(=O)CN1C(=O)S/C(=C\c2ccc(Cl)cc2)C1=O
inhibition (Rattus norvegicus [4]): 14% | solubility [5]: Insoluble

O=C(CN1C(=O)S/C(=C\c2ccc(OCc3ccc(Cl)cc3Cl)cc2)C1=O)Nc1ccccc1
IC50 [1]: Nd(Insoluble) | inhibition (Rattus norvegicus [2]): 21.8%

O=C(CN1C(=O)S/C(=C\c2ccc(O)cc2)C1=O)NCc1ccccc1
IC50 ([1]; read-out: IC50): 19.8 µM

O=C(CN1C(=O)S/C(=C\c2ccc(OCc3ccc(Cl)cc3Cl)cc2)C1=O)NCc1ccccc1
IC50 [1]: Nd(Insoluble) | inhibition (Rattus norvegicus [2]): 11.9%

COc1cc2nc(N3CCN(C(=O)c4ccco4)CC3)nc(N)c2cc1OC [PRAZOSIN]
Papp B→A at 2.5 h (in vitro [12]): 12.9 ×10⁻⁶ cm/s | Papp A→B at 2.5 h (in vitro [13]): 6.85 ×10⁻⁶ cm/s | efflux ratio (in vitro [14]): 1.9

COc1ccc(/C=C2\SC(=O)N(CC(=O)Nc3ccccc3)C2=O)cc1O
IC50 [1]: Nd(Insoluble) | inhibition (Rattus norvegicus [2]): 29.9%

CCN(CC)C(=O)CN1C(=O)S/C(=C/c2ccc(OC)c(OC)c2)C1=O
IC50 ([1]; read-out: IC50): 22.4 µM | inhibition (Rattus norvegicus [15]): 81.8%

O=C(CN1C(=O)S/C(=C\c2ccc(O)cc2)C1=O)Nc1ccccc1Cl
IC50 ([1]; read-out: IC50): 0.95 µM | logD (physchem [11]): 3.68 | IC50 [6]: 13.5 µM | solubility at 2 h, 200 µM (physchem [3]): 5.24 µM (≈ 2.04 µg/mL)

CC/C(=C(/CC)c1ccc(O)cc1)c1ccc(O)cc1 [DIETHYLSTILBESTROL]
solubility at 2 h, 200 µM (physchem [3]): 11.9 µM (≈ 3.21 µg/mL)
